According to patent US7235379B2, “Method and medium for the detection/identification of microorgranisms with esterase activity” (Bio Merieux, priority 2000, dated 2007):
Values joined by “and” are separate entries in the source; they are usually repeats but may differ in a detail not shown here. Equal entries are not always repeated. Where two headings read alike, the source gives them in different places.

Assays:
Format in all cases: cell-based
Salmonella arizonae 018 = test: Ex.4 colony coloration, 5-bromo-3-indolyl nonanoate, DMSO/Tween 20, MacConkey; for intensity of coloration: key: 0: no activity; 0.1: trace of coloration; 0.5: very pale coloration; 1: distinct coloration of low intensity; 2: clear coloration of medium intensity; 3: intense coloration; 4: very intense coloration
[1] = test system: bacterial species exhibiting esterase activity; test: Ex.4 overall conclusion, colony coloration; details: experimental conditions of Example 4
Description: This medium is then separated into eight portions.

Salmonella spp. 017 = test: Ex.4 colony coloration, 5-bromo-3-indolyl nonanoate, DMSO/Tween 20, MacConkey; set-up: key to color: —: absence of colour or intensity
Escherichia coli 002 = test: as above; set-up: key: —: absence of colour or intensity
[2] = test system: Salmonella enteritidis 006; test: as above
Salmonella typhi 118 = test system: Salmonella typhi 118; for intensity of coloration: key: 0: no activity; 0.1: trace of coloration; 0.5: very pale coloration; 1: distinct coloration of low intensity; 2: clear coloration of medium intensity; 3: intense coloration; 4: very intense coloration
Hafnia alvei 025 = test: Ex.4 colony coloration, 5-bromo-3-indolyl nonanoate, DMSO/Tween 20, MacConkey; set-up: key: —: absence of colour or intensity

With “polyethylene glycol mono-p-isooctylphenyl ether [Triton X100]” the color (Salmonella arizonae 018; 8 ml/l Triton X100, 24 h) was “gray”, the intensity of coloration (Salmonella arizonae 018; 8 ml/l Triton X100, 24 h) was 2 and the color (Salmonella arizonae 018; 8 ml/l Triton X100, 48 h) was “gray”. For the same compound, the intensity of coloration (Salmonella arizonae 018; 8 ml/l Triton X100, 48 h) was 2.5, the color (Salmonella arizonae 018; 16 ml/l Triton X100, 24 h) was “gray” and the intensity of coloration (Salmonella arizonae 018; 16 ml/l Triton X100, 24 h) was 2. For the same compound, the color (Salmonella arizonae 018; 16 ml/l Triton X100, 48 h) was “gray”, the intensity of coloration (Salmonella arizonae 018; 16 ml/l Triton X100, 48 h) was 2.5 and the color (Salmonella arizonae 018; 32 ml/l Triton X100, 24 h) was “gray”. For the same compound, the intensity of coloration (Salmonella arizonae 018; 32 ml/l Triton X100, 24 h) was 1, the color (Salmonella arizonae 018; 32 ml/l Triton X100, 48 h) was “gray” and the intensity of coloration (Salmonella arizonae 018; 32 ml/l Triton X100, 48 h) was 2. The “effect on the esterase activity compared with Tergitol 4” value [1] was “not as pronounced as that observed with Tergitol 4”, the color (Salmonella spp. 017; 8 ml/l Triton X100, 24 h) was “gray” and the intensity of coloration (Salmonella spp. 017; 8 ml/l Triton X100, 24 h) was 1. The color (Salmonella spp. 017; 8 ml/l Triton X100, 48 h) was “gray”, the intensity of coloration (Salmonella spp. 017; 8 ml/l Triton X100, 48 h) was 3 and the color (Salmonella spp. 017; 16 ml/l Triton X100, 24 h) was “gray”. For the same compound, the intensity of coloration (Salmonella spp. 017; 16 ml/l Triton X100, 24 h) was 0.5, the color (Salmonella spp. 017; 16 ml/l Triton X100, 48 h) was “gray” and the intensity of coloration (Salmonella spp. 017; 16 ml/l Triton X100, 48 h) was 2. For the same compound, the color (Salmonella spp. 017; 32 ml/l Triton X100, 24 h) was “—”, the color (Salmonella spp. 017; 32 ml/l Triton X100, 48 h) was “gray” and the intensity of coloration (Salmonella spp. 017; 32 ml/l Triton X100, 48 h) was 0.5. For the same compound, the color (Escherichia coli 002; 8 ml/l Triton X100, 24 h) was “—”, the color (Escherichia coli 002; 8 ml/l Triton X100, 48 h) was “—” and the color (Escherichia coli 002; 16 ml/l Triton X100, 24 h) was “—”. For the same compound, the color (Escherichia coli 002; 16 ml/l Triton X100, 48 h) was “—”, the color (Escherichia coli 002; 32 ml/l Triton X100, 24 h) was “—” and the color (Escherichia coli 002; 32 ml/l Triton X100, 48 h) was “—”. For the same compound, the color ([2]; 8 ml/l Triton X100, 24 h) was “gray”, the intensity of coloration ([2]; 8 ml/l Triton X100, 24 h) was 2 and the color ([2]; 8 ml/l Triton X100, 48 h) was “gray”. For the same compound, the intensity of coloration ([2]; 8 ml/l Triton X100, 48 h) was 2.5, the color ([2]; 16 ml/l Triton X100, 24 h) was “gray” and the intensity of coloration ([2]; 16 ml/l Triton X100, 24 h) was 2. For the same compound, the color ([2]; 16 ml/l Triton X100, 48 h) was “gray”, the intensity of coloration ([2]; 16 ml/l Triton X100, 48 h) was 2.5 and the color ([2]; 32 ml/l Triton X100, 24 h) was “gray”. The intensity of coloration ([2]; 32 ml/l Triton X100, 24 h) was 1, the color ([2]; 32 ml/l Triton X100, 48 h) was “gray” and the intensity of coloration ([2]; 32 ml/l Triton X100, 48 h) was 1.5. For the same compound, the color (Salmonella typhi 118; 8 ml/l Triton X100, 24 h) was “gray”, the intensity of coloration (Salmonella typhi 118; 8 ml/l Triton X100, 24 h) was 1 and the color (Salmonella typhi 118; 8 ml/l Triton X100, 48 h) was “gray”. The intensity of coloration (Salmonella typhi 118; 8 ml/l Triton X100, 48 h) was 1, the color (Salmonella typhi 118; 16 ml/l Triton X100, 24 h) was “gray” and the intensity of coloration (Salmonella typhi 118; 16 ml/l Triton X100, 24 h) was 1. For the same compound, the color (Salmonella typhi 118; 16 ml/l Triton X100, 48 h) was “gray”, the intensity of coloration (Salmonella typhi 118; 16 ml/l Triton X100, 48 h) was 1 and the color (Salmonella typhi 118; 32 ml/l Triton X100, 24 h) was “gray”. The intensity of coloration (Salmonella typhi 118; 32 ml/l Triton X100, 24 h) was 0.5, the color (Salmonella typhi 118; 32 ml/l Triton X100, 48 h) was “gray” and the intensity of coloration (Salmonella typhi 118; 32 ml/l Triton X100, 48 h) was 0.5. For the same compound, the color (Hafnia alvei 025; 8 ml/l Triton X100, 24 h) was “—”, the color (Hafnia alvei 025; 8 ml/l Triton X100, 48 h) was “—” and the color (Hafnia alvei 025; 16 ml/l Triton X100, 24 h) was “—”. The color (Hafnia alvei 025; 16 ml/l Triton X100, 48 h) was “—”, the color (Hafnia alvei 025; 32 ml/l Triton X100, 24 h) was “—” and the color (Hafnia alvei 025; 32 ml/l Triton X100, 48 h) was “—”.
In the case of CCCCC(CC)COS(=O)(=O)[O-].[Na+] (centres unmarked) [Tergitol 8], the color (Salmonella arizonae 018; 2 ml/l Tergitol 8, 24 h) is reported as “gray”, the intensity of coloration (Salmonella arizonae 018; 2 ml/l Tergitol 8, 24 h) is reported as 2 and the color (Salmonella arizonae 018; 2 ml/l Tergitol 8, 48 h) is reported as “gray”. For the same compound, the intensity of coloration (Salmonella arizonae 018; 2 ml/l Tergitol 8, 48 h) was 4, the color (Salmonella arizonae 018; 4 ml/l Tergitol 8, 24 h) was “gray” and the intensity of coloration (Salmonella arizonae 018; 4 ml/l Tergitol 8, 24 h) was 2. The color (Salmonella arizonae 018; 4 ml/l Tergitol 8, 48 h) was “gray”, the intensity of coloration (Salmonella arizonae 018; 4 ml/l Tergitol 8, 48 h) was 2.5 and the color (Salmonella arizonae 018; 8 ml/l Tergitol 8, 24 h) was “gray”. For the same compound, the intensity of coloration (Salmonella arizonae 018; 8 ml/l Tergitol 8, 24 h) was 2, the color (Salmonella arizonae 018; 8 ml/l Tergitol 8, 48 h) was “gray” and the intensity of coloration (Salmonella arizonae 018; 8 ml/l Tergitol 8, 48 h) was 2.5. The “effect on the esterase activity compared with Tergitol 4” value [1] was “not as pronounced as that observed with Tergitol 4”, the color (Salmonella spp. 017; 2 ml/l Tergitol 8, 24 h) was “gray” and the intensity of coloration (Salmonella spp. 017; 2 ml/l Tergitol 8, 24 h) was 0.5. The color (Salmonella spp. 017; 2 ml/l Tergitol 8, 48 h) was “gray”, the intensity of coloration (Salmonella spp. 017; 2 ml/l Tergitol 8, 48 h) was 1.5 and the color (Salmonella spp. 017; 4 ml/l Tergitol 8, 24 h) was “gray”. The intensity of coloration (Salmonella spp. 017; 4 ml/l Tergitol 8, 24 h) was 0.3, the color (Salmonella spp. 017; 4 ml/l Tergitol 8, 48 h) was “gray” and the intensity of coloration (Salmonella spp. 017; 4 ml/l Tergitol 8, 48 h) was 1. The color (Salmonella spp. 017; 8 ml/l Tergitol 8, 24 h) was “—”, the color (Salmonella spp. 017; 8 ml/l Tergitol 8, 48 h) was “gray” and the intensity of coloration (Salmonella spp. 017; 8 ml/l Tergitol 8, 48 h) was 0.5. For the same compound, the color (Escherichia coli 002; 2 ml/l Tergitol 8, 24 h) was “—”, the color (Escherichia coli 002; 2 ml/l Tergitol 8, 48 h) was “—” and the color (Escherichia coli 002; 4 ml/l Tergitol 8, 24 h) was “—”. For the same compound, the color (Escherichia coli 002; 4 ml/l Tergitol 8, 48 h) was “—”, the color (Escherichia coli 002; 8 ml/l Tergitol 8, 24 h) was “—” and the color (Escherichia coli 002; 8 ml/l Tergitol 8, 48 h) was “—”. The color ([2]; 2 ml/l Tergitol 8, 24 h) was “gray”, the intensity of coloration ([2]; 2 ml/l Tergitol 8, 24 h) was 3 and the color ([2]; 2 ml/l Tergitol 8, 48 h) was “gray”. The intensity of coloration ([2]; 2 ml/l Tergitol 8, 48 h) was 4, the color ([2]; 4 ml/l Tergitol 8, 24 h) was “gray” and the intensity of coloration ([2]; 4 ml/l Tergitol 8, 24 h) was 2.5. For the same compound, the color ([2]; 4 ml/l Tergitol 8, 48 h) was “gray”, the intensity of coloration ([2]; 4 ml/l Tergitol 8, 48 h) was 3 and the color ([2]; 8 ml/l Tergitol 8, 24 h) was “gray”. For the same compound, the intensity of coloration ([2]; 8 ml/l Tergitol 8, 24 h) was 3, the color ([2]; 8 ml/l Tergitol 8, 48 h) was “gray” and the intensity of coloration ([2]; 8 ml/l Tergitol 8, 48 h) was 3.5. The color (Salmonella typhi 118) was “gray”, the intensity of coloration (Salmonella typhi 118) was 1 and 1.5 and 2 and the color (Hafnia alvei 025; 2 ml/l Tergitol 8, 24 h) was “—”. For the same compound, the color (Hafnia alvei 025; 2 ml/l Tergitol 8, 48 h) was “—”, the color (Hafnia alvei 025; 4 ml/l Tergitol 8, 24 h) was “—” and the color (Hafnia alvei 025; 4 ml/l Tergitol 8, 48 h) was “—”. The color (Hafnia alvei 025; 8 ml/l Tergitol 8, 24 h) was “—” and the color (Hafnia alvei 025; 8 ml/l Tergitol 8, 48 h) was “—”.
